Laboratory results reported in US20150119245A1, “Method for Producing Shelf Stable Hypochlorous Acid Solutions” (priority 2013, published 2015).

Assays:
[1] = Window cleaner streak test, sprayed on glass and dried without wiping; conditions: test solution as used in streak test
[2] = Available chlorine present as hypochlorous acid as a function of pH (FIG. 2); assay type: physicochemical
Source text: The concentration of hypochlorous acid solutions (HOCl) are usually reported as free available chlorine (FAC) in parts per million (ppm). Hypochlorous acid (HOCl) is in equilibrium with hypochlorite ion (^−OCl) and Cl2 and the extent of the equilibrium is controlled by the pH of the solution, as shown in FIG. 2. Therefore, both FAC and pH need to be known to understand the amount of chlorine present as hypochlorous acid.
Thus at pH 5, a 100 ppm FAC solution will have 100 ppm chlorine present as HOCl.

| Compound | pH [1] | FAC present as hypochlorous acid ([2]; pH 7.5) [%] | available chlorine present as hypochlorous acid ([2]; pH of 3) | available chlorine present as HOCl ([2]; pH range of 4 to 5.6) |
| --- | --- | --- | --- | --- |
| [Na+].[OH-] [NaOH, sodium hydroxide] | 12.2 | – | – | – |
| OCl [hypochlorous acid] | – | 50 | about 90% | approximately 100% |
